Data published in patent US5698521A, “Native calcitonin mimetics” (ZymoGenetics, Inc., priority 1995, dated 1997).
Where a SMILES comes first, the peptide text is derived from it. [ ]: non-standard residue; d: D form. ξ: configuration not given here. ξPro(4ξ-Me) = CC1CNC(C(=O)O)C1; ξIva = CCC(C)(N)C(=O)O; Aib = CC(C)(N)C(=O)O

How the values were obtained:
[1] = Solubility of isolated powders in organic solvents; assay type: physicochemical
[2] = target: T1, human calcitonin receptor (Homo sapiens, UniProt P30988); assay: CRE-luciferase induction in Hollex-1 cells (BHK 570 expressing human calcitonin receptor and CRE-luciferase reporter); assay type: cell-based; conditions: BHK 570 cells expressing human calcitonin receptor and CRE-luciferase reporter (Hollex-1)
T1 construct: expressed in transfected cells; host or cells: BHK 570 clone KZ10-20-48 (CRE-luciferase), clone Hollex-1
T1 sequence (P30988 25-474): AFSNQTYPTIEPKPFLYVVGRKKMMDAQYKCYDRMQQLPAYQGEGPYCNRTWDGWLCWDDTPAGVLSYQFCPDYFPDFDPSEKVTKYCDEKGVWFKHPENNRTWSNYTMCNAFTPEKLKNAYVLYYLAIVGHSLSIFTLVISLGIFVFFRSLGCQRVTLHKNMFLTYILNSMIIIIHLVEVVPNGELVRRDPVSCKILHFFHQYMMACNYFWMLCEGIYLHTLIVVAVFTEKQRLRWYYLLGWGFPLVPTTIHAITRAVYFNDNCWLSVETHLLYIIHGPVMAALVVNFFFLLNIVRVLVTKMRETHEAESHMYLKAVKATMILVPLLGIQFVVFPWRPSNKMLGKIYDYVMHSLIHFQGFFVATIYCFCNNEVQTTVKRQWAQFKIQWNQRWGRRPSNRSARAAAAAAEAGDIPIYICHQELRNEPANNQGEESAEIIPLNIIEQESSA

[3] = system: osteoclasts in mouse calvariae; assay: Calvaria histology (TRAP-stained osteoclast number and size); assay type: cell-based
Source text: To confirm the findings in the calvarial bone resorption assay employing calcium release from culture mouse calvariae, selected bones were fixed in 10% neutral buffered formalin and demineralized in 5% formic acid with 5% formalin. The bones were dehydrated through an ascending series of ethanol concentrations, infiltrated in glycol methacrylate, and embedded using a JB-4 embedding kit (PolySciences, Warrington, Pa.) (Liu and Kalu, J. Bone Miner. Res., 5:973-82, 1990). Cross sections of calvariae cut at 5 μm were obtained and stained for tartrate-resistant acid phosphatase (TRAP) activity and counterstained with methyl green and thionin for cell morphology (Liu and Kalu, J. Bone. Miner. Res. 1990, supra). Osteoclasts were identified by TRAP stain, multinucleation, large cell size, and irregular cell shape. The number of osteoclasts were counted from endocranial and ectocranial bone surfaces and expressed as number/mm perimeter. The size of all the osteoclasts counted was also measured using a Bone Morphometry program (Lui and Kalu, supra.; Bain et al., J. Done Miner. Res. 8:435-42, 1993). […] This PTH-induced increase was suppressed by treatment with human calcitonin.
Calcitonin mimetic compounds were evaluated in a similar fashion for their ability to suppress PTH-induced increases in osteoclast number and size. Cell toxicity (or death) was also evaluated morphologically. […]

[4] = system: PTH-Induced Bone Resorption in Mouse Calvariae; assay: Calvarial assay: PTH-induced bone resorption (calcium release); assay type: cell-based; conditions: 1 nM PTH 1-34, 72 hours, read-out: Inhibition of Ca++ Release EC50
Procedure: Calvaria from 4-day old neonatal CD-1 mice (pregnant mice received from Charles River Laboratories, Wilmington, Mass.) were trimmed with fine-tipped scissors to leave the parietal regions, including the sagittal suture. These trimmed bones were placed singly per well into 6-well cell culture cluster plates (Costar, Pleasanton, Calif.) with 1 ml/well of growth medium (DMEM, BioWhittaker, Walkersville, Md.) with 4.5 g/L glucose, 0.29 mg/ml L-glutamine, 1 mM sodium pyruvate, 15% heat-inactivated horse serum, and antibiotics (penicillin-G 50 μg/ml, streptomycin 50 μg/ml, and neomycin 100 μg/ml), and rocked gently (RedRocker™, model PR50-115V, Hoefer, San Francisco, Calif.) at 37° C. in a 5% CO2 humidified incubator for 24 hours preincubation.
Following incubation, medium was removed and replaced with 1.5 ml/well of growth medium containing 1 nM parathyroid hormone (PTH) 1-34 (Sigma) to stimulate bone resorption. For evaluation of the ability of calcitonin mimetics to inhibit PTH induced bone resorption, mimetic compounds in DMSO were added to the growth medium at concentrations ranging from 1-240 μg/ml (final assay concentration of DMSO less than or equal to 1%). In each experiment human calcitonin (0.02-20 nM, 0.2-2 nM preferred) was added to PTH treated bones as a positive control. […]

human glucagon receptor [5] = target: T2, human glucagon receptor (Homo sapiens, UniProt P47871); assay: cell-based
T2 sequence (P47871 26-477): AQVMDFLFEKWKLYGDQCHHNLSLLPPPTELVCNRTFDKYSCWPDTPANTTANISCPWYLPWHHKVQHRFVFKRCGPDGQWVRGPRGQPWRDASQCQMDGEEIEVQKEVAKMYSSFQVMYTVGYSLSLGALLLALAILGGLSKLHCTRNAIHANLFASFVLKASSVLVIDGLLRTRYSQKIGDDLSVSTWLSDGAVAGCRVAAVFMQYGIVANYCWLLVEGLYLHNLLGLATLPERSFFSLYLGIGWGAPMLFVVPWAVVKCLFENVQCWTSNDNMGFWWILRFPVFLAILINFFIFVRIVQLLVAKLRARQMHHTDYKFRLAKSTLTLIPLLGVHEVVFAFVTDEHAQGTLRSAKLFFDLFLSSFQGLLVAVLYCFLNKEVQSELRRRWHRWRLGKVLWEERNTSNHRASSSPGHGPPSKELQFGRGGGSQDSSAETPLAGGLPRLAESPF

[6] = system: human calcitonin receptor; assay: CRE-luciferase induction in Hollex-1 cells (BHK 570 expressing human calcitonin receptor and CRE-luciferase reporter); assay type: cell-based; conditions: Hollex-1 clone; read-out: forskolin EC50, CRE-luciferase induction
[7] = system: KZ10-20-48 cells (CRE-luciferase reporter); assay: CRE-luciferase induction in parent reporter line BHK/KZ10-20-48; assay type: cell-based, baby hamster; conditions: clone KZ10-20-48, 25 mM forskolin, 4 hours; range 15-25 fold
Procedure: Stable transfectants were selected by growth in Dulbecco's modified Eagle's medium (DMEM) supplemented with 10% heat inactivated fetal bovine serum (HI-FBS), 2 mM L-glutamine and 1 mM sodium pyruvate containing 250 nM methotrexate (MTX) for 10-14 days. Clones were isolated, grown to confluence in opaque white microtiter plates (Dynatech, Chantilly, Va.), then treated with […], which elevates cellular cAMP through direct activation of adenylate cyclase (Berkowitz and Gilman, Proc. Nat. Acad. Sci. USA 87:5258-62, 1990) for 4 hours at 37° C., 5% CO2 . Following incubation, cells were lysed and assayed for luciferase induction in a Labsystems Luminoskan microtiter luminometer (Labsystems Inc., Morton Grove, Ill.) using a Promega luciferase kit (El500, Promega Corp., Madison, Wis.), as described below.

human glucagon receptor [8] = target: T2, human glucagon receptor; conditions: KZ10-20-48/pLJ6-4-25 clone
[9] = target: hamster calcitonin receptor (Mesocricetus auratus, UniProt A0A3Q0D7K7); assay: CRE-luciferase induction in Boris/KZ10-3 cells (calcitonin receptor positive)
hamster calcitonin receptor, sequence (A0A3Q0D7K7 entry or part of it): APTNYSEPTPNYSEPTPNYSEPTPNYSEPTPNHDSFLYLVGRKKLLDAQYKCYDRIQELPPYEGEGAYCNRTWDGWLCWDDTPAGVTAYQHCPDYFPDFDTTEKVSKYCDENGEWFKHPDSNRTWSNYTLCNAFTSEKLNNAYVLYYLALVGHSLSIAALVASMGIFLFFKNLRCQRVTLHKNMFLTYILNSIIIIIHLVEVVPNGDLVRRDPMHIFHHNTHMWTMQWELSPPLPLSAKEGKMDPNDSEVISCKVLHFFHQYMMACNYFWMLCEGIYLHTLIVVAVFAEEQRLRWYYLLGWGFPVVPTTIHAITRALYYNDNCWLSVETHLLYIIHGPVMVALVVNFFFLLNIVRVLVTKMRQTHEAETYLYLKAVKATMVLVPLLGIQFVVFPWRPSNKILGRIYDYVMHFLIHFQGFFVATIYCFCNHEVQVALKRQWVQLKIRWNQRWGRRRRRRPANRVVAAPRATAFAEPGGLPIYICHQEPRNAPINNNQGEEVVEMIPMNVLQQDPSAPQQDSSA

[10] = system: KZ10-20-48/Zem 228 cells (calcitonin receptor negative); assay: CRE-luciferase induction in calcitonin receptor negative line KZ10-20-48/Zem 228 (specificity control); assay type: cell-based, baby hamster
[11] = in acetonitrile, ethyl acetate, and chloroform
[12] = in methanol, ethanol, n-butanol and dimethyl sulfoxide

For `CC[C@H](C)[C@H](NC(=O)C(C)(C)NC(=O)[C@H](CCC(N)=O)NC(=O)C(C)(CC)NC(=O)[C@H](Cc1c[nH]c2ccccc12)NC(C)=O)C(=O)N[C@H](C(=O)NC(C)(C)C(=O)N[C@@H](CC(C)C)C(=O)NC(C)(C)C(=O)N1CCC[C@H]1C(=O)N[C@@H](CCC(N)=O)C(=O)NC(C)(C)C(=O)N1CCC[C@H]1C(=O)NC(C)(C)C(=O)N1CC(C)CC1C(=O)N[C@@H](Cc1ccccc1)C(=O)NCC(=O)O)[C@@H](C)O` (stereo partly drawn) [ZG 2807 A, Acetyl-Trp-Xaal-Gln-2-aminoisobutyric acid (Aib)-Ile-Thr-Aib-Leu-Aib-Pro-Gln-Aib-Pro-Aib-Xaa2-Phe-Gly] (Ac-W[ξIva]Q[Aib]IT[Aib]L[Aib]PQ[Aib]P[Aib][ξPro(4ξ-Me)]FG-OH), the solubility [1, 11] was “slightly soluble”, the solubility ([1]; in hexane) was “insoluble” and the solubility [1, 12] was “readily soluble”. The EC50 [2] was 506 nM, the Histology ([3]; PTH-treated mouse calvariae, the cell wraps over two lines: 'Inhibition of osteoclast size') was “Inhibition of osteoclast” and the EC50 [4] was 33200 nM.
With `CC[C@H](C)[C@H](NC(=O)C(C)(C)NC(=O)[C@H](CCC(N)=O)NC(=O)C(C)(CC)NC(=O)[C@H](Cc1c[nH]c2ccccc12)NC(C)=O)C(=O)N[C@H](C(=O)NC(C)(C)C(=O)N[C@@H](CC(C)C)C(=O)NC(C)(C)C(=O)N1CCC[C@H]1C(=O)N[C@@H](CCC(N)=O)C(=O)NC(C)(C)C(=O)N1CCC[C@H]1C(=O)NC(C)(C)C(=O)N1CC(C)CC1C(=O)N[C@@H](Cc1ccccc1)C(=O)O)[C@@H](C)O` (stereo partly drawn) [ZG 2807 B, Acetyl-Trp-Xaal-Gln-Aib-Ile-Thr-Aib-Leu-Aib-Pro-Gln-Aib-Pro-Aib-Xaa2-Phe] (Ac-W[ξIva]Q[Aib]IT[Aib]L[Aib]PQ[Aib]P[Aib][ξPro(4ξ-Me)]F-OH) the solubility [1, 11] was “slightly soluble”, the solubility ([1]; in hexane) was “insoluble” and the solubility [1, 12] was “readily soluble”. The EC50 [2] was 525 nM.
In the case of `C=C[C@@]1(C)CC(=O)[C@]2(O)[C@@]3(C)[C@@H](O)CCC(C)(C)[C@@H]3[C@H](O)[C@H](OC(C)=O)[C@@]2(C)O1` [forskolin], the EC50 (human glucagon receptor [5]) is reported as 2100 nM, the EC50 [6] is reported as 1200 nM and the “induction of CRE-luciferase vs basal” value [7] is reported as 20 fold. For the same compound, the induction of luciferase (human glucagon receptor [8]) was 35 fold, the EC50 [9] was 900 nM and the induction of luciferase ([9]; Boris/KZ10-3 clone) was 25 fold. The EC50 ([10]; Mesocricetus auratus, range 0.5-1.5 μM) was 600 nM and the “induction of CRE-luciferase” value ([10]; range 20-35 fold) was 30 fold.
In the case of “parathyroid hormone (PTH) 1-34 (SVSEIQLMHNLGKHLNSMERVEWLRKKLQDVHNF; Parathyroid hormone; UniProt P01270 32-65, looked up, fragment) [PTH 1-34, stimulus of bone resorption in the calvarial assay, reference compound]”, the “number and size of osteoclasts (histomorphometry)” value ([3]; cultured mouse calvariae, calcitonin tested against the PTH-induced increase) is reported as “increases in the number and size of osteoclasts”.
